Laboratory results taken from US20240334931A1, “NEMATICIDAL COMPOSITION” (ISHIHARA SANGYO KAISHA, LTD., priority 2021, published 2024).

Tested on: southern root-knot nematode (Meloidogyne incognita)
Assay: Test on effects against southern root-knot nematode: treated contaminated soil, cucumber pot test (Test Example 1 and Comparative Test)
Type: in vivo
Design: key: 0: No knot formed on the root at all; 1: Knots formed to a slight degree; 2: Knots formed to a moderate degree; 3: Knots formed to a heavy degree; 4: Knots formed to the heaviest degree
Procedure: The treated soil was put into a pot, three cucumber seeds were sown, and the pot was placed in a greenhouse. Two to three weeks after the sowing of the cucumber seeds, the root knot index was determined based on the degree of formation of root knots shown in Table 5. Each composition containing Compound No. […]-192 or B-196 at a concentration of 400 ppm and the composition containing Compound No. […] [table] […] Root knot index of 2 corresponds to a state where the proportion of healthy roots is 50% or less to the entire roots, and indicates control effects to such an extent that cucumber as a crop plant to be tested cannot healthily grow.

[1] = 400 ppm, 10 ml poured to 200 ml contaminated soil, cucumber, two to three weeks after sowing
[2] = Comparative Test, active ingredient concentration 50 ppm, otherwise as Test Example 1 (cucumber)

Structure (SMILES) | root knot index [1] | further results
CC(C)(C(=NNC=O)c1ccc(Cl)cc1)n1cnc(C(F)(F)F)n1 [A-90] | 1 | –
CCN(C=O)N=C(c1ccccc1Cl)C(C)(C)n1ccc(C(F)(F)F)n1 [A-193] | 1 | –
CC(C)(C(=NNC=O)c1cc(Cl)ccc1Cl)n1ccc(C(F)(F)F)n1 [A-334] | 1 | –
CC(C)(C(=NNC=O)c1ccccc1I)n1cnc(C(F)(F)F)n1 [A-241] | 1 | –
CC(C)(C(=NNC=O)c1cccc2c1OC(F)(F)O2)n1ccc(Cl)n1 [A-412] | 1 | –
Cc1ccccc1C(=NNC=O)C(C)(C)n1cc([N+](=O)[O-])cn1 [A-256] | 1 | –
COc1cccc(C(=NNC=O)C(C)(C)n2cnc(C(F)(F)F)n2)c1 [A-329] | 1 | –
CC(C)(C(=NNC=O)c1cccc2c1OC(F)(F)O2)n1cnc([N+](=O)[O-])n1 [A-419] | 1 | –
CC(C)(C(=NNC=O)c1ccccc1Cl)n1ccc(I)n1 [A-203] | 1 | –
CC(C)(C(=NNC=O)c1ccccc1Br)n1ccc(C(F)(F)F)n1 [A-233] | 1 | –
CC(C)(C(=NNC=O)c1ccccc1Cl)n1ccc(Cl)n1 [A-199] | 1 | –
CC(C)(C(=NNC=O)c1ccccc1F)n1ccc(C(F)(F)F)n1 [A-152] | 1 | –
O=CNN=C(c1ccc(F)cc1)C1(n2ccc(C(F)(F)F)n2)CC1 (single isomer, unassigned) [B-105] | 1 | –
CC(C)(C(=NNC=O)c1cccc2c1OC(F)(F)O2)n1ccc(C(F)(F)F)n1 [A-410] | 1 | –
CC(C)(C(=NNC=O)c1ccccc1Cl)n1ccc(Br)n1 [A-201] | 1 | –
CC(C)(C(=NNC=O)c1ccccc1Cl)n1cnc(Cl)n1 [A-200] | 1 | –
CN(C=O)N=C(c1ccc(Cl)cc1)C(C)(C)n1cnc(C(F)(F)F)n1 [A-94] | 1 | –
CC(C)(C(=NNC=O)c1ccccc1Cl)n1cnc(Br)n1 [A-202] | 1 | –
CC(C)(C(=NNC=O)c1ccc(F)cc1F)n1ccc(Cl)n1 [A-344] | 1 | –
Cc1ccccc1C(=NNC=O)C(C)(C)n1cc(C#N)c(C(F)(F)F)n1 [A-257] | 1 | –
CC(C)(C(=NNC=O)c1ccccc1OC(F)(F)F)n1ccc(C(F)(F)F)n1 [A-270] | 1 | –
CC(C)(C(=NNC=O)c1ccccc1Cl)n1cc(F)cn1 [A-217] | 1 | –

Structure (SMILES) | root knot index [1] | further results
CC(C)(C(=NNC=O)c1cc(F)ccc1Cl)n1ccc(C(F)(F)F)n1 [A-351] | 1 | –
CC(C)(C(=NNC=O)c1ccc(F)cc1F)n1cnc(C(F)(F)F)n1 [A-157] | 1 | –
CC(C)(C(=NNC=O)c1cccc(F)c1Cl)n1ccc(C(F)(F)F)n1 [A-349] | 1 | –
COc1cccc(C(=NNC=O)C(C)(C)n2ccc(Cl)n2)c1 [A-330] | 1 | –
CC(C(=NNC=O)c1ccccc1)n1ccc(C(F)(F)F)n1 (stereo not drawn) [Compound A-1 (WO2020/ 179910), reference compound] | – | root knot index [2]: 2
C#CCN(C=O)N=C(c1ccccc1Cl)C(C)(C)n1ccc(C(F)(F)F)n1 [A-195] | 1 | –
CCN(C=O)N=C(c1ccc(Cl)cc1)C(C)(C)n1cnc(C(F)(F)F)n1 [A-95] | 1 | –
CC(C(=NNC=O)c1ccccc1)n1cnc(C(F)(F)F)n1 (stereo not drawn) [Compound A-3 (WO2020/ 179910), reference compound] | – | root knot index [2]: 2
CC(C)(C(=NNC=O)c1ccccc1Cl)n1cnc([N+](=O)[O-])n1 [A-206] | 1 | –
Cc1ccccc1C(=NNC=O)C(C)(C)n1ccc(C#N)n1 [A-253] | 1 | –
CC(C)(C(=NNC=O)c1ccccc1I)n1ccc(C(F)(F)F)n1 [A-240] | 1 | –
Cc1ccccc1C(=NNC=O)C(C)(C)n1cnc([N+](=O)[O-])n1 [A-252] | 1 | –
Cc1ccccc1C(=NNC=O)C(C)(C)n1ccc(C(F)(F)F)n1 [A-244] | 1 | –
CC(C)(C(=NNC=O)c1cccc(F)c1)n1cnc(C(F)(F)F)n1 [A-275] | 1 | –
Cc1ccccc1C(=NNC=O)C(C)(C)n1cnc(C(F)(F)F)n1 [A-245] | 1 | –
CC(C)(C(=NNC=O)c1ccccc1OC(F)(F)F)n1cnc(C#N)n1 [A-273] | 1 | –
Cc1ccccc1C(=NNC=O)C(C)(C)n1ccc(Cl)n1 [A-247] | 1 | –
CC(C)(C(=NNC=O)c1ccccc1C(F)(F)F)n1cnc(C(F)(F)F)n1 [A-261] | 1 | –
CC(C)(C(=NNC=O)c1cc(Cl)ccc1Cl)n1cnc(C(F)(F)F)n1 [A-335] | 1 | –
CC(C(=NNC=O)c1cccc(Cl)c1)n1ccc(C(F)(F)F)n1 (stereo not drawn) [Compound A-58 (WO2020/ 179910), reference compound] | – | root knot index [2]: 2
O=CNN=C(c1ccccc1Cl)C1(n2ccc(C(F)(F)F)n2)CC1 [B-148] | 1 | –
CSc1ccn(C(C)(C)C(=NNC=O)c2cccc(F)c2)n1 [A-430] | 1 | –

Structure (SMILES) | root knot index [1] | further results
COc1ccccc1C(=NNC=O)C(C)(C)n1ccc(C(F)(F)F)n1 [A-264] | 1 | –
CC(C)(C(=NNC=O)c1ccccc1OC(F)(F)F)n1ccc(Br)n1 [A-272] | 1 | –
CC(C)(C(=NNC=O)c1c(F)cccc1F)n1cnc(C(F)(F)F)n1 [A-161] | 1 | –
CC(C)(C(=NNC=O)c1ccc(F)cc1F)n1ccc(C(F)(F)F)n1 [A-156] | 1 | –
Cc1ccccc1C(=NNC=O)C(C)(C)n1ccc([N+](=O)[O-])n1 [A-251] | 1 | –
CC(C)(C(=NNC=O)c1cccc2c1OC(F)(F)O2)n1ccc(Br)n1 [A-414] | 1 | –
Cc1ccccc1C(=NNC=O)C(C)(C)n1ccc(Br)n1 [A-249] | 1 | –
CC(C)(C(=NNC=O)c1cccc(F)c1)n1cnc(Cl)n1 [A-278] | 1 | –
COCN(C=O)N=C(c1ccccc1Br)C(C)(C)n1ccc(C(F)(F)F)n1 [A-235] | 1 | –
CCCN(C=O)N=C(c1ccc(Cl)cc1)C(C)(C)n1cnc(C(F)(F)F)n1 [A-96] | 1 | –
CC(C)(C(=NNC=O)c1cccc(F)c1Cl)n1cnc(C(F)(F)F)n1 [A-350] | 1 | –
CC(C)(C(=NNC=O)c1cccc(C(F)(F)F)c1)n1cnc(C(F)(F)F)n1 [A-327] | 1 | –
CC(C)(C(=NNC=O)c1ccccc1Cl)n1ccc(C(F)(F)F)n1 [A-150] | 1 | –
CC(C)(C(=NNC=O)c1ccccc1Cl)n1ccc([N+](=O)[O-])n1 [A-205] | 1 | –
CC(C)(C(=NNC=O)c1c(F)cccc1F)n1ccc(C(F)(F)F)n1 [A-160] | 1 | –
CC(C)(C(=NNC=O)c1ccccc1F)n1cnc(C(F)(F)F)n1 [A-153] | – | root knot index (200 ppm, 10 ml poured to 200 ml contaminated soil, cucumber, two to three weeks after sowing): 1
COc1ccccc1C(=NNC=O)C(C)(C)n1cnc(C(F)(F)F)n1 [A-265] | 1 | –
Cc1ccccc1C(=NNC=O)C(C)(C)n1cc(F)cn1 [A-255] | 1 | –
CC(C)(C(=NNC=O)c1ccccc1Cl)n1nc(Br)nc1Br [A-224] | 1 | –
CC(C)(C(=NNC=O)c1cccc(Cl)c1Cl)n1ccc(C(F)(F)F)n1 [A-332] | 1 | –
CC(C)(C(=NNC=O)c1cccc2c1OC(F)(F)O2)n1cnc(C#N)n1 [A-417] | 1 | –
CC(C)(C(=NNC=O)c1ccccc1Cl)n1cnc(C(F)F)n1 [A-198] | 1 | –
